Data: patent US11339447B2, “System and method for determining Kareniticin sensitivity on cancer” (CROWN BIOSCIENCE, INC. (TAICANG), priority 2017, dated 2022)

What was measured:
PDX CR0133 = test: karenitecin treatment of PDX model; format: in vivo; set-up: key to Response: responder: responded to karenitecin treatment (AUC<0.5 and TGI>0.8); non_responder: did not respond to karenitecin treatment (AUC>0.5 and TGI<0.6); settings: karenitecin treatment for two weeks
Procedure: (§1) A cohort of 48 PDX models in 8 cancers were used in this study. Those models were subject to karenitecin treatment for two weeks. Both tumor growth inhibition (TGI) and median AUC (area under curve) ratio, a newly developed metric to evaluate drug efficacy, were calculated (Table 1). Those models can be divided into two categories according to TGI and median AUC ratio.

PDX CR1451 = test: karenitecin treatment of PDX model; format: in vivo; set-up: key to Response: responder: responded to karenitecin treatment (AUC<0.5 and TGI>0.8); non_responder: did not respond to karenitecin treatment (AUC>0.5 and TGI<0.6); settings: karenitecin treatment for two weeks
Procedure: as §1

PDX CR2524 = test: karenitecin treatment of PDX model; format: in vivo; set-up: key to Response: responder: responded to karenitecin treatment (AUC<0.5 and TGI>0.8); non_responder: did not respond to karenitecin treatment (AUC>0.5 and TGI<0.6); settings: karenitecin treatment for two weeks
Procedure: as §1

PDX CR2545 = test: karenitecin treatment of PDX model; format: in vivo; set-up: key to Response: responder: responded to karenitecin treatment (AUC<0.5 and TGI>0.8); non_responder: did not respond to karenitecin treatment (AUC>0.5 and TGI<0.6); settings: karenitecin treatment for two weeks
Procedure: as §1

PDX CR3079 = test: karenitecin treatment of PDX model; format: in vivo; set-up: key to Response: responder: responded to karenitecin treatment (AUC<0.5 and TGI>0.8); non_responder: did not respond to karenitecin treatment (AUC>0.5 and TGI<0.6); settings: karenitecin treatment for two weeks
Procedure: as §1

PDX ES0042 = test: karenitecin treatment of PDX model; format: in vivo; set-up: key to Response: responder: responded to karenitecin treatment (AUC<0.5 and TGI>0.8); non_responder: did not respond to karenitecin treatment (AUC>0.5 and TGI<0.6); settings: karenitecin treatment for two weeks
Procedure: as §1

PDX ES0201 = test: karenitecin treatment of PDX model; format: in vivo; set-up: key to Response: responder: responded to karenitecin treatment (AUC<0.5 and TGI>0.8); non_responder: did not respond to karenitecin treatment (AUC>0.5 and TGI<0.6); settings: karenitecin treatment for two weeks
Procedure: as §1

PDX GA3102 = test: karenitecin treatment of PDX model; format: in vivo; set-up: key to Response: responder: responded to karenitecin treatment (AUC<0.5 and TGI>0.8); non_responder: did not respond to karenitecin treatment (AUC>0.5 and TGI<0.6); settings: karenitecin treatment for two weeks
Procedure: as §1

PDX LU1116 = test: karenitecin treatment of PDX model; format: in vivo; set-up: key to Response: responder: responded to karenitecin treatment (AUC<0.5 and TGI>0.8); non_responder: did not respond to karenitecin treatment (AUC>0.5 and TGI<0.6); settings: karenitecin treatment for two weeks
Procedure: as §1

PDX LU1144 = test: karenitecin treatment of PDX model; format: in vivo; set-up: key to Response: responder: responded to karenitecin treatment (AUC<0.5 and TGI>0.8); non_responder: did not respond to karenitecin treatment (AUC>0.5 and TGI<0.6); settings: karenitecin treatment for two weeks
Procedure: as §1

PDX LU1155 = test: karenitecin treatment of PDX model; format: in vivo; set-up: key to Response: responder: responded to karenitecin treatment (AUC<0.5 and TGI>0.8); non_responder: did not respond to karenitecin treatment (AUC>0.5 and TGI<0.6); settings: karenitecin treatment for two weeks
Procedure: as §1

PDX LU1271 = test: karenitecin treatment of PDX model; format: in vivo; set-up: key to Response: responder: responded to karenitecin treatment (AUC<0.5 and TGI>0.8); non_responder: did not respond to karenitecin treatment (AUC>0.5 and TGI<0.6); settings: karenitecin treatment for two weeks
Procedure: as §1

PDX LU1868 = test: karenitecin treatment of PDX model; format: in vivo; set-up: key to Response: responder: responded to karenitecin treatment (AUC<0.5 and TGI>0.8); non_responder: did not respond to karenitecin treatment (AUC>0.5 and TGI<0.6); settings: karenitecin treatment for two weeks
Procedure: as §1

PDX OV1658 = test: karenitecin treatment of PDX model; format: in vivo; set-up: key to Response: responder: responded to karenitecin treatment (AUC<0.5 and TGI>0.8); non_responder: did not respond to karenitecin treatment (AUC>0.5 and TGI<0.6); settings: karenitecin treatment for two weeks
Procedure: as §1

PDX PA0527 = test: karenitecin treatment of PDX model; format: in vivo; set-up: key to Response: responder: responded to karenitecin treatment (AUC<0.5 and TGI>0.8); non_responder: did not respond to karenitecin treatment (AUC>0.5 and TGI<0.6); settings: karenitecin treatment for two weeks
Procedure: as §1

PDX PA3029 = test: karenitecin treatment of PDX model; format: in vivo; set-up: key to Response: responder: responded to karenitecin treatment (AUC<0.5 and TGI>0.8); non_responder: did not respond to karenitecin treatment (AUC>0.5 and TGI<0.6); settings: karenitecin treatment for two weeks
Procedure: as §1

PDX SA0271 = test: karenitecin treatment of PDX model; format: in vivo; set-up: key to Response: responder: responded to karenitecin treatment (AUC<0.5 and TGI>0.8); non_responder: did not respond to karenitecin treatment (AUC>0.5 and TGI<0.6); settings: karenitecin treatment for two weeks
Procedure: as §1

[1] = prior studies, cited from earlier work

CC[C@@]1(O)C(=O)OCc2c1cc1n(c2=O)Cc2c-1nc1ccccc1c2CC[Si](C)(C)C [karenitecin]
Median AUC ratio (PDX CR0133): 0.275 | Response (PDX CR0133): responder | TGI (PDX CR0133): 0.905 | Median AUC ratio (PDX CR1451): 0.069 | Response (PDX CR1451): responder | TGI (PDX CR1451): 1.173 | Median AUC ratio (PDX CR2524): 0.333 | Response (PDX CR2524): responder | TGI (PDX CR2524): 1.120 | Median AUC ratio (PDX CR2545): 0.597 | Response (PDX CR2545): non_responder | TGI (PDX CR2545): 0.379 | Median AUC ratio (PDX CR3079): 0.706 | Response (PDX CR3079): non_responder | TGI (PDX CR3079): 0.381 | Median AUC ratio (PDX ES0042): −0.100 | Response (PDX ES0042): responder | TGI (PDX ES0042): 1.128 | Median AUC ratio (PDX ES0201): 1.093 | Response (PDX ES0201): non_responder | TGI (PDX ES0201): 0.529 | Median AUC ratio (PDX GA3102): 0.084 | Response (PDX GA3102): responder | TGI (PDX GA3102): 1.061 | Median AUC ratio (PDX LU1116): 0.111 | Response (PDX LU1116): responder | TGI (PDX LU1116): 1.250 | Median AUC ratio (PDX LU1144): 1.056 | Response (PDX LU1144): non_responder | TGI (PDX LU1144): 0.378 | Median AUC ratio (PDX LU1155): 0.406 | Response (PDX LU1155): responder | TGI (PDX LU1155): 0.991 | Median AUC ratio (PDX LU1271): −0.007 | Response (PDX LU1271): responder | TGI (PDX LU1271): 1.081 | Median AUC ratio (PDX LU1868): 0.915 | Response (PDX LU1868): non_responder | TGI (PDX LU1868): 0.534 | Median AUC ratio (PDX OV1658): 0.764 | Response (PDX OV1658): non_responder | TGI (PDX OV1658): 0.433 | Median AUC ratio (PDX PA0527): 0.316 | Response (PDX PA0527): responder | TGI (PDX PA0527): 0.996 | Median AUC ratio (PDX PA3029): 0.768 | Response (PDX PA3029): non_responder | TGI (PDX PA3029): 0.423 | Median AUC ratio (PDX SA0271): −0.133 | Response (PDX SA0271): responder | TGI (PDX SA0271): 1.104 | incidence of severe diarrhea ([1]; compared with irinotecan): lower | incidence and severity of anemia, neutropenia and thrombocytopenia ([1]; compared with topotecan): lower
